Values joined by “and” are separate entries in the source; they are usually repeats but may differ in a detail not shown here. Identical values can stand only once.
Columns and labels:
[1] = test system: rats subjected to Li-pilo induced SE; test: Latency to and frequency of spontaneous recurrent seizures (SRS), lithium-pilocarpine model (Example 1); assay type: in vivo, rat; conditions: pilo-DZP
Description: All rats received lithium chloride (3 meq/kg, i.p., Sigma, St Louis, Mo., U.S.A.); about 20 h later, animals were placed into plexiglas boxes, in order to record baseline cortical EEG. Methylscopolamine bromide (1 mg/kg, s.c., Sigma) was administered to limit the peripheral effects of the convulsant. SE was induced by injecting pilocarpine hydrochloride (25 mg/kg, s.c., Sigma) 30 min after methyl-scopolamine. The bilateral EEG cortical activity was recorded during the whole duration of SE and behavioral changes were noted.
The effects of increasing doses of the test compound were studied on 3 groups of rats. The animals of the first group received 10 mg/kg of the test compound, i.p., 1 h after the onset of SE (pilo-TC10) while the animals of groups 2 and 3 received 30 and 60 mg/kg of the test compound (pilo-TC30 and pilo-TC60), respectively.
Another group was injected with 2 mg/kg diazepam (DZP, i.m.) at 1 h after the onset of SE. This is a standard treatment to improve animals survival after SE (pilo-DZP). The control group received saline instead of pilocarpine and the test compound (saline-saline). The pilo-test compound rats surviving SE were then injected about 10 h after the first test compound injection with a second i.p. injection of the same dose of the test compound and were maintained under a twice daily treatment with the test compound for 6 additional days. Pilo-DZP received a second injection of 1 mg/kg DZP on the day of SE at about 10 h after the first one. Thereafter, Pilo-DZP and saline-saline rats received twice daily an equivalent volume of saline.
The effects of the test compound on the EEG and on the latency to occurrence of SRS were investigated by daily video recording of the animals for 10 h per day and the recording of the electrographic activity twice a week for 8 h.
To calculate the frequency of SRS in pilocarpine-exposed rats, the seizure severity and distinguished stage III (clonic seizures of facial muscles and anterior limbs) and stage IV-V seizures (rearing and falling) was considered. The frequency of stage III SRS per week in pilo-DZP and pilo-test compound rats was variable amongst the groups. It was low, constant in the pilo-DZP and pilo-TC60 (with early SRS onset) groups during the first 3 weeks and had disappeared during the 4th week in the pilo-DZP group. […] The frequency of more severe stage IV-V SRS was highest during the first week in most groups, except pilo-TC30 and TC60 with late seizure onset where the SRS frequency was constant over the whole 4 weeks in TC30 group and over the first two weeks in the pilo-TC60 group with late SRS onset in which no stage IV-V seizures where no seizures recorded after the second week.

[2] = test system: rats subjected to li-pilo SE; test: Quantification of cell densities 14 days after lithium-pilocarpine SE (Example 2); assay type: in vivo, rat; conditions: 14 days after SE
Description: All rats received lithium chloride (3 meq/kg, i.p., Sigma, St Louis, Mo., U.S.A.) and about 20 h later, all animals received also methylscopolamine bromide (1 mg/kg, s.c., Sigma) that was administered to limit the peripheral effects of the convulsant. SE was induced by injecting pilocarpine hydrochloride (25 mg/kg, s.c., Sigma) 30 min after methylscopolamine. The effects of increasing doses of TC (RWJ) were studied in 5 groups of rats. […] The control group received vehicle instead of pilocarpine and TC.
At the moment, neuronal counting is still in progress in the second group of animals studied for epileptogenesis and long-term counting and the data concerning that part of the study will not be included in the present report. For neuronal counting, animals were deeply anesthetized with […] pentobarbital (Dolethal®, Vetoquinol, Lure, France). Brains were then removed and frozen. Serial 20 μm slices were cut in a cryostat, air-dried during several days before thionine staining. […] The grid of counting was placed on a well defined area of the cerebral structure of interest and counting was carried out with a microscopic enlargement of 200- or 400-fold defined for each single cerebral structure. Cell counts were performed twice on each side of three adjacent sections for each region by a single observer unaware of the animal's treatment. The number of cells obtained in the 12 counted fields in each cerebral structure was averaged. This procedure was used to minimize the potential errors that could result from double counting leading to overestimation of cell numbers. […] Counts involved only neurons with cell bodies larger than 10 μm. Cells with small cell bodies were considered as glial cells and were not counted.
For neuronal damage and epileptogenesis, statistical analysis between groups was performed by means of a one-way analysis of variance followed by a post-hoc Dunnett or Fisher test using the Statistica software.

[3] = DZP rats compared to control rats
[4] = DZP rats compared to control saline-treated rats
[5] = pilo-DZP (2.5 mg/kg i.m.), n = 7

CN1C(=O)CN=C(c2ccccc2)c2cc(Cl)ccc21 [DZP, diazepam, reference compound]
frequency of stage IV-V SRS ([1]; first week): 11.3 SRS per week
latency to SRS ([1]; n=9): 18.2 ± 6.9 days
neurons surviving, all parts of the entorhinal cortex ([2]; DZP group): 27-81%
neuronal damage, amygdala central nucleus [2, 3]: no neuronal damage
neuronal drop out, CA1 region of the hippocampus (pyramidal cell layer) [2, 3]: 85%
neuronal drop out, amygdala basolateral nucleus [2, 3]: 73%
neuronal drop out, amygdala medial dorsal anterior nucleus [2, 3]: 53%
neuronal drop out, thalamus central medial nucleus [2, 3]: 34%
neuronal drop out, thalamus dorsolateral medial dorsal nucleus [2, 3]: 40%
neuronal drop out, thalamus mediodorsal central nucleus [2, 3]: 18%
neuronal drop out, thalamus mediodorsal lateral nucleus [2, 3]: 24%
neuronal loss, CA3 region [2, 3]: 40%
neuronal loss, amygdala medial ventral posterior nucleus [2, 3]: 38%
neuronal loss, hilus of the dentate gyrus [2, 3]: 65% and 66%
neuronal loss, thalamus mediodorsal nucleus [2, 3]: 49%
neuronal loss, ventral lateral division of the dorsolateral thalamic nucleus [2, 3]: 90%
damage, dorsal entorhinal cortex layer II [2, 4]: 18%
damage, dorsal entorhinal cortex layers III-IV [2, 4]: 24%
damage, ventral entorhinal cortex layer II [2, 4]: 22% and 19%
damage, ventral entorhinal cortex layers III/IV [2, 4]: 74% and 73%
neuronal loss, piriform cortex dorsal layer II [2, 4]: 66%
neuronal loss, piriform cortex layer III [2, 4]: 94%
neuronal loss, piriform cortex ventral layer II [2, 4]: 89%
number of neuronal cell bodies, Amygdala, Basolateral [2, 5]: 12.8 ± 5.3
number of neuronal cell bodies, Amygdala, Medial, dorsal anterior [2, 5]: 40.0 ± 2.5
number of neuronal cell bodies, Amygdala, Medial, ventral posterior [2, 5]: 21.8 ± 2.4
number of neuronal cell bodies, Cerebral cortex, Entorhinal, layer II, dorsal [2, 5]: 23.5 ± 0.7
number of neuronal cell bodies, Cerebral cortex, Entorhinal, layer II, ventral [2, 5]: 21.7 ± 1.3
number of neuronal cell bodies, Cerebral cortex, Entorhinal, layer III/IV, dorsal [2, 5]: 22.3 ± 0.5
number of neuronal cell bodies, Cerebral cortex, Entorhinal, layer III/IV, ventral [2, 5]: 7.7 ± 2.3
number of neuronal cell bodies, Cerebral cortex, Piriform, layer II, dorsal [2, 5]: 12.6 ± 4.2
number of neuronal cell bodies, Cerebral cortex, Piriform, layer II, ventral [2, 5]: 3.6 ± 0.7
number of neuronal cell bodies, Cerebral cortex, Piriform, layer III [2, 5]: 1.2 ± 1.2
number of neuronal cell bodies, Hippocampus, CA1 area [2, 5]: 10.9 ± 1.9
number of neuronal cell bodies, Hippocampus, CA3 area [2, 5]: 31.3 ± 2.9
number of neuronal cell bodies, Hippocampus, Hilus [2, 5]: 33.5 ± 3.0
number of neuronal cell bodies, Thalamus, Central medial [2, 5]: 74.2 ± 7.4
number of neuronal cell bodies, Thalamus, Dorsolateral, medial, dorsal [2, 5]: 61 ± 6.3
number of neuronal cell bodies, Thalamus, Dorsolateral, ventral lateral [2, 5]: 9.7 ± 2.5
number of neuronal cell bodies, Thalamus, Mediodorsal central [2, 5]: 26.3 ± 1.8
number of neuronal cell bodies, Thalamus, Mediodorsal lateral [2, 5]: 19.6 ± 0.8
number of neuronal cell bodies, Thalamus, Mediodorsal medial [2, 5]: 16.4 ± 1.9
